One test has as its target T1, human APJ receptor (Homo sapiens, UniProt P35414).
T1 construct: expressed in transfected cells; host or cells: HEK293
T1 sequence (P35414 1-380): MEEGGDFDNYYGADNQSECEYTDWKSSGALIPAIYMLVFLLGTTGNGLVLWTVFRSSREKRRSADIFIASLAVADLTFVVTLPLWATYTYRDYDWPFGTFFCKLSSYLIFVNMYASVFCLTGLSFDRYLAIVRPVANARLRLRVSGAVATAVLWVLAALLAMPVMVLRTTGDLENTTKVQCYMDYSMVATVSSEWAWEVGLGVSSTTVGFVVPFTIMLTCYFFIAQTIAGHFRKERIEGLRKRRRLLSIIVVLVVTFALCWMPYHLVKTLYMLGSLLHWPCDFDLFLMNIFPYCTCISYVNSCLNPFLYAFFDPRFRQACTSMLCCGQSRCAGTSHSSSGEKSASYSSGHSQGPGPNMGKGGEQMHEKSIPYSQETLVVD
The experiment in a line: Intracellular cAMP accumulation assay (APJ hcAMP, HTRF). In kind it is cell-based. The settings on record: HEK293 cells stably expressing human APJ receptor; inhibition of forskolin-mediated cAMP production; Table 1; read-out: hAPJ cAMP EC50 Potency range. Put shortly:
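HEK293 cells stably expressing the receptor (5,000/well) treated with compound plus […] and 2 μM forskolin for 30 min at room temperature; cAMP by HTRF against a cAMP standard curve. EC50 from variable-slope sigmoidal fit; Ymax as % of (Pyr1)apelin-13 inhibition.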
In general terms: cAMP levels reflect the balance of adenylyl cyclase and phosphodiesterase activity.
With `CCCCc1nc(O)c(S(=O)(=O)c2ccc(-c3ccc(F)nc3C)cc2)c(O)c1N(C)c1cccc(Cl)c1` [Example 105, 6-butyl-5-((3-chlorophenyl)(methyl)amino)-3-((4-(6-fluoro-2-methylpyridin-3-yl)phenyl)sulfonyl)pyridine-2,4-diol], the EC50 lay within 10 to 100 nM.

With `Cc1c(-c2ccc(S(=O)(=O)c3c(O)nc(-c4ccn(C)n4)c(N4CC(C)(C)c5ccccc54)c3O)cc2)ccnc1F` [Example 160, 5-(3,3-dimethylindolin-1-yl)-3-((4-(2-fluoro-3-methylpyridin-4-yl)phenyl)sulfonyl)-6-(1-methyl-1H-pyrazol-3-yl)pyridine-2,4-diol], the EC50 was 10 to 100 nM.

For the compound `CCCCc1nc(O)c(S(=O)(=O)c2ccc(-c3ccccc3C(N)=O)cc2)c(O)c1N(CC)c1cc(C)cc(C)c1` [Example 143, 4′-((6-butyl-5-((3,5-dimethylphenyl)(ethyl)amino)-2,4-dihydroxypyridin-3-yl)sulfonyl)-[1,1′-biphenyl]-2-carboxamide], the EC50 lay in the range of 0.01 to 10 nM.

Take `CCCCc1nc(O)c(S(=O)(=O)c2ccc(-c3ccncc3C)cc2)c(O)c1N(C)c1cccc(OC)c1` [Example 031, 6-butyl-5-((3-methoxyphenyl)(methyl)amino)-3-((4-(3-methylpyridin-4-yl)phenyl)sulfonyl)pyridine-2,4-diol]: the EC50 is 10 to 100 nM.

For the compound `CCCCc1nc(O)c(S(=O)(=O)c2ccc(-c3ccc(F)nc3C)cc2)c(O)c1N(CC)c1cc(C)cc(C)c1` [Example 135, 6-butyl-5-((3,5-dimethylphenyl)(ethyl)amino)-3-((4-(6-fluoro-2-methylpyridin-3-yl)phenyl)sulfonyl)pyridine-2,4-diol], the EC50 is 0.01 to 10 nM.

Regarding `CCCCc1nc(O)c(S(=O)(=O)c2ccc(-c3ccnc(F)c3C)cc2)c(O)c1N(C)c1ccccc1C` [Example 193, 6-butyl-3-((4-(2-fluoro-3-methypyridin-4-yl)phenyl)sulfonyl)-5-(methyl(o-tolyl)amino)pyridine-2,4-diol], the EC50 fell in the range of 0.01 to 10 nM.

`CCN(c1ccccc1)c1c(-c2ccn(C)n2)nc(O)c(S(=O)(=O)c2ccc(-c3ccccc3C(=O)N(C)C)cc2)c1O` [Example 060, 4′-((5-(ethyl(phenyl)amino)-2,4-dihydroxy-6-(1-methyl-1H-pyrazol-3-yl)pyridin-3-yl)sulfonyl)-N,N-dimethyl-[1,1′-biphenyl]-2-carboxamide]: the EC50 lay within 0.01 to 10 nM.

Turning to `CCCCc1nc(O)c(S(=O)(=O)c2ccc(-c3ccc(F)nc3C)cc2)c(O)c1N1CCCCc2ccccc21` [Example 177, 6-butyl-3-((4-(6-fluoro-2-methylpyridin-3-yl)phenyl)sulfonyl)-5-(2,3,4,5-tetrahydro-1H-benzo[b]azepin-1-yl)pyridine-2,4-diol], the EC50 is 10 to 100 nM.

For the compound `CCCCc1nc(O)c(S(=O)(=O)c2ccc(-c3ccncc3C)cc2)c(O)c1N1CCCc2ccccc21` [Example 022, 6-butyl-5-(3,4-dihydroquinolin-1(2H)-yl)-3-((4-(3-methylpyridin-4-yl)phenyl)sulfonyl)pyridine-2,4-diol], the EC50 fell in the range of 0.01 to 10 nM.

Take `CCN(c1ccccc1)c1c(CC2CC2)nc(O)c(S(=O)(=O)c2ccc(-c3ccnc(F)c3C)cc2)c1O` [Example 049, 6-(cyclopropylmethyl)-5-(ethyl(phenyl)amino)-3-((4-(2-fluoro-3-methylpyridin-4-yl)phenyl)sulfonyl)pyridine-2,4-diol]: the EC50 was 0.01 to 10 nM.

For `CCCCc1nc(O)c(S(=O)(=O)c2ccc(-n3cc(Cl)ccc3=O)cc2)c(O)c1N(CC)c1ccccc1` [Example 082, 1-(4-((6-butyl-5-(ethyl(phenyl)amino)-2,4-dihydroxypyridin-3-yl)sulfonyl)phenyl)-5-chloropyridin-2(1H)-one], the EC50 lay within 0.01 to 10 nM.

For `CCCCc1nc(O)c(C(=O)N2CC[C@@H](c3ccccc3)C2)c(O)c1N1CCC(C)c2ccccc21` (stereo partly drawn) [Example 045, (6-butyl-2,4-dihydroxy-5-(4-methyl-3,4-dihydroquinolin-1(2H)-yl)pyridin-3-yl)((S)-3-phenylpyrrolidin-1-yl)methanone], the EC50 was in the range of 0.01 to 10 nM.

Take `CCN(c1ccccc1)c1c(CC2CC2)nc(O)c(S(=O)(=O)c2ccc(-c3ccncc3C)cc2)c1O` [Example 052, 6-(cyclopropylmethyl)-5-(ethyl(phenyl)amino)-3-((4-(3-methylpyridin-4-yl)phenyl)sulfonyl)pyridine-2,4-diol]: the EC50 lay within 0.01 to 10 nM.

Consider `CCCCc1nc(O)c(S(=O)(=O)c2ccc(Br)cc2)c(O)c1N(CC)c1cc(C)cc(C)c1` [Example 134, 3-((4-bromophenyl)sulfonyl)-6-butyl-5-((3,5-dimethylphenyl)(ethyl)amino)pyridine-2,4-diol], for which the EC50 is 10 to 100 nM.

Regarding `CCCCc1nc(O)c(S(=O)(=O)c2ccc(-c3ccnc(F)c3C)cc2)c(O)c1N(CC)c1ccccc1` [Example 080, 6-butyl-5-(ethyl(phenyl)amino)-3-((4-(2-fluoro-3-methylpyridin-4-yl)phenyl)sulfonyl)pyridine-2,4-diol], the EC50 was in the range of 0.01 to 10 nM.

Consider `CCN(c1cccc(C#N)c1)c1c(-c2ccn(C)n2)nc(O)c(S(=O)(=O)c2ccc(-c3cccnc3C)cc2)c1O` [Example 217], for which the EC50 is 0.01 to 10 nM.

Take `CCCCc1nc(O)c(S(=O)(=O)c2ccc(-c3ccccc3C(=O)NC3CC3)cc2)c(O)c1N(C)c1ccccc1C` [Example 208, 4′-((6-butyl-2,4-dihydroxy-5-(methyl(o-tolyl)amino)pyridin-3-yl)sulfonyl)-N-cyclopropyl-[1,1′-biphenyl]-2-carboxamide]: the EC50 was in the range of 0.01 to 10 nM.

As for `CCCCc1nc(O)c(S(=O)(=O)c2ccc(-n3cc(Cl)ccc3=O)cc2)c(O)c1N(C)c1ccccc1` [Example 018, 1-(4-((6-butyl-2,4-dihydroxy-5-(methyl(phenyl)amino)pyridin-3-yl)sulfonyl)phenyl)-5-chloropyridin-2(1H)-one], the EC50 was 0.01 to 10 nM.

As to `CCCCc1nc(O)c(S(=O)(=O)c2ccc(Br)cc2)c(O)c1N(C)c1ccccc1` [Example 010, 3-((4-bromophenyl)sulfonyl)-6-butyl-5-(methyl(phenyl)amino)pyridine-2,4-diol], the EC50 was in the range of 10 to 100 nM.

`CCCCc1nc(O)c(S(=O)(=O)c2ccc(-c3ccccc3C(N)=O)cc2)c(O)c1N1CCCc2ccccc21` [Example 057, 4′-((6-butyl-5-(3,4-dihydroquinolin-1(2H)-yl)-2,4-dihydroxypyridin-3-yl)sulfonyl)-[1,1′-biphenyl]-2-carboxamide]: the EC50 lay in the range of 0.01 to 10 nM.

As to `CCCCc1nc(O)c(S(=O)(=O)c2ccc(-c3ccc(F)nc3C)cc2)c(O)c1N(CC)c1cccc(C#N)c1` [Example 178, 3-((2-butyl-5-((4-(6-fluoro-2-methylpyridin-3-yl)phenyl)sulfonyl)-4,6-dihydroxypyridin-3-yl)(ethyl)amino)benzonitrile], the EC50 was in the range of 0.01 to 10 nM.

For `CCCCc1nc(O)c(S(=O)(=O)c2ccc(-c3ccc(F)nc3C)cc2)c(O)c1N(CC)c1ccccc1` [Example 086, 6-butyl-5-(ethyl(phenyl)amino)-3-((4-(6-fluoro-2-methylpyridin-3-yl)phenyl)sulfonyl)pyridine-2,4-diol], the EC50 fell in the range of 0.01 to 10 nM.

Still in this test, the particulars now being: HEK293 cells stably expressing human APJ receptor; inhibition of forskolin-mediated cAMP production; read-out: Human APJ cAMP Potency range.
In the case of `CCCCc1nc(O)c(S(=O)(=O)c2ccc(-c3ccnc(F)c3C)cc2)c(O)c1N(C)c1cccc(C#N)c1` [AB-005, 3-((2-butyl-5-((4-(2-fluoro-3-methylpyridin-4-yl)phenyl)sulfonyl)-4,6-dihydroxypyridin-3-yl)(methyl)amino)benzonitrile], the EC50 is 0.01 to 10 nM.

Turning to `CCCCc1nc(O)c(C(=O)N2CCC(c3ncc(F)cc3F)C2)c(O)c1N(C)c1ccccc1F` (stereo not shown) [Example 006, (6-butyl-5-((2-fluorophenyl)(methyl)amino)-2,4-dihydroxypyridin-3-yl)(3-(3,5-difluoropyridin-2-yl)pyrrolidin-1-yl)methanone], the EC50 fell in the range of 0.01 to 10 nM.

The same test, now with this note: hAPJ cAMP EC50 Potency range, HEK293 cells stably expressing human APJ receptor; inhibition of forskolin-mediated cAMP production; Table 1.
`CCN(c1ccccc1)c1c(CC2CC2)nc(O)c(C(=O)N2CCC(c3ncc(F)cc3F)C2)c1O` (stereo not shown) [Example 053, (6-(cyclopropylmethyl)-5-(ethyl(phenyl)amino)-2,4-dihydroxypyridin-3-yl)(3-(3,5-difluoropyridin-2-yl)pyrrolidin-1-yl)methanone] registered an EC50 of 10 to 100 nM.

The compound `CCCCc1nc(O)c(C(=O)N2CC[C@H](c3ccccc3)C2)c(O)c1N1CCc2ccccc21` [Example 009, (R)-(6-butyl-2,4-dihydroxy-5-(indolin-1-yl)pyridin-3-yl)(3-phenylpyrrolidin-1-yl)methanone] displayed an EC50 of 10 to 100 nM.

Still in this test, the particulars now being: read-out: hAPJ cAMP EC50 Potency range; HEK293 cells stably expressing human APJ receptor; inhibition of forskolin-mediated cAMP production; Table 1.
Take `CCCCc1nc(O)c(C(=O)N2CCC(c3ncc(Cl)cc3F)C2)c(O)c1N(CC)c1ccccc1` (stereo not shown) [Example 072, (6-butyl-5-(ethyl(phenyl)amino)-2,4-dihydroxypyridin-3-yl)(3-(5-chloro-3-fluoropyridin-2-yl)pyrrolidin-1-yl)methanone]: the EC50 was 0.01 to 10 nM.

On to `CCCCc1nc(O)c(C(=O)N2CCC(c3ncc(F)cc3F)C2)c(O)c1N(CC)c1ccccc1` (stereo not shown) [Example 073, (6-butyl-5-(ethyl(phenyl)amino)-2,4-dihydroxypyridin-3-yl)(3-(3,5-difluoropyridin-2-yl)pyrrolidin-1-yl)methanone], for which the EC50 lay within 0.01 to 10 nM.

For the origin of these results see US10669258B2, “3-sulfonyl-5-aminopyridine-2,4-diol APJ agonists” (BRISTOL-MYERS SQUIBB COMPANY, priority 2016, dated 2020).
